Molecular target: PHA depolymerase
Assay type: biochemical, Corynebacterium aquaticum IM-1
Settings: pH 6.5; read-out: IC50 (concentration of inhibitor at which the enzyme activity was inhibited by 50%)

Compound | IC50
O=S(=O)(F)Cc1ccccc1 [PMSF, Phenylmethylsulfonyl fluoride] | 1.92 mM
O[C@H](CS)[C@H](O)CS (racemic) [DTT, dithiothreitol] | 73 mM
